From article PMC4641600, “Novel Activities of Select NSAID R-Enantiomers against Rac1 and Cdc42 GTPases” (PLoS ONE, 2015)

How the values were obtained:
[1] = system: OvCa429 and OvCa433 cells; experiment: Boyden chamber cell migration assay; assay type: cell-based, human; settings: Homo sapiens; estimated from limited dose response data; read-out: IC50 migration Rac1/Cdc42 dependent (est)
[2] = system: Rac1 membrane localization; experiment: Rac1 immunolocalization, OvCa433 cells; assay type: cell-based, human
GST-Rac1 = GST-Rac1 (Homo sapiens, UniProt P63000); experiment: In vitro nucleotide binding assay on individual GTPase (13 µm GSH beads); settings: GST-Rac1 and GST-Cdc42; BODIPY-GTP 300 nM
human COX-1 = biological target: T1, human COX-1 (Homo sapiens, UniProt P23219); experiment: Cyclooxygenase assay (CEREP), PGE2 formation; assay type: biochemical; settings: recombinant enzyme, 4 μM arachidonic acid
T1 construct: purchased CEREP Laboratories (contract assay); host or cells: Sf-9
T1 sequence (P23219 24-599): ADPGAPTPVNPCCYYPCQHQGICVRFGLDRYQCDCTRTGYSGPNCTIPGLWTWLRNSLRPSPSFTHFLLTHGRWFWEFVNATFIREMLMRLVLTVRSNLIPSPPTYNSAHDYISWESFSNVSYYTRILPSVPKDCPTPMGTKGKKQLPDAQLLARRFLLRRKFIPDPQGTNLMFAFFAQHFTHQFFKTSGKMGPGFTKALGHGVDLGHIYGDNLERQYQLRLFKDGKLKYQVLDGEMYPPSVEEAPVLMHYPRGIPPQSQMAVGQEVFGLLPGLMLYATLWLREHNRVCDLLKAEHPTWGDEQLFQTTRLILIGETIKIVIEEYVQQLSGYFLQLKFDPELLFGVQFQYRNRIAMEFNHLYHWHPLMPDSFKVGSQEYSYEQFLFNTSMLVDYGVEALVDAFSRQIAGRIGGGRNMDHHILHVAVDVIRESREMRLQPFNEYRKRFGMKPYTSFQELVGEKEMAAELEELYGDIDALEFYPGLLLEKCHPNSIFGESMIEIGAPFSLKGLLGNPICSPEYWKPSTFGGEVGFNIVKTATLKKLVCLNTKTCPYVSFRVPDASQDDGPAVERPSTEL

[3] = system: Rac1 and Tiam1 protein levels; experiment: Immunoblot of protein levels; assay type: cell-based, human
Method: Cells were stimulated with EGF at a final concentration of 1 nM for 10 min. Cells were lysed in a RIPA buffer consisting of 50 mM Tris pH 7.4, 1% NP-40, 0.25% sodium deoxycholate, 150 mM NaCl, 1 mM EDTA, 1 mM PMSF, 1 mM sodium vanadate, 10 mM sodium fluoride, 1 μg/mL each of pepstatin, aprotinin and leupeptin, 10 mM sodium pyrophosphate and 10 mM beta-glycerophosphate.
N = 3. See also Figure D in S1 File for time dependent loss of Rac1 membrane localization. N = 3 (B) Quantification of image intensity using Image J of 3 representative confocal images as shown in panel (A) containing 20–30 cells/field normalized to actin and untreated controls. (C) Western blot analyses of lysates from cells treated with 300 μM compound as indicated for 24 h as compared to untreated controls. […] Blots were probed for Tiam1 (200 kDa), GAPDH (37 kDa), Rac1 (20 kDa), as a loading control. (D) Quantification of image intensity using Image J. Each marker was normalized to GAPDH and untreated controls. N = 3.

Rac1 = biological target: T2, Rac1 (Homo sapiens, UniProt P63000); experiment: GLISA, OvCa433 cells; assay type: cell-based; settings: 300 μM, 1 h pretreatment, 10 ng/ml EGF 2 min
T2 construct: endogenous in cells; host or cells: HeLa

## COc1ccc2cc(CC(=O)O)ccc2c1 [6-MNA, 6-methoxy-2-napthalene acetic acid]
[1]
  IC50: > 300 µM
[2]; 300 μM
  Rac1 membrane localization: no effect
[2]; immunofluorescence quantified using ImageJ
  Rac PM Localiz.: 98%
GST-Rac1
  inhibition of BODIPY-GTP binding: inactive
Human COX-1
  IC50: 28 µM
[3]; 300 μM, 24 h, immunoblot
  total Rac1 or Tiam1 protein levels: did not alter
[3]; immunoblot analysis
  Rac protein expression: No change
Rac1
  Rac1 activation by EGF: no or limited effect
